Measured values taken from US8937067B2, “Activators of human pyruvate kinase” (The United States of America, as represented by the …, priority 2008, dated 2015).

How the values were obtained:
hPK-M2 [1] = biological target: T1, hPK-M2 (Homo sapiens, UniProt P14618); experiment: Luminescent pyruvate kinase-luciferase coupled assay (KinaseGlo); type: biochemical; conditions: for activation at 57 µM / hPK, M2 Max. Res.: KinaseGlo, % activation at 57 μM of compound; for activation at 57 µM: read-out: hPK, M2 Max. Res.; for Emax: read-out: maximum response
T1 sequence (P14618 whole entry): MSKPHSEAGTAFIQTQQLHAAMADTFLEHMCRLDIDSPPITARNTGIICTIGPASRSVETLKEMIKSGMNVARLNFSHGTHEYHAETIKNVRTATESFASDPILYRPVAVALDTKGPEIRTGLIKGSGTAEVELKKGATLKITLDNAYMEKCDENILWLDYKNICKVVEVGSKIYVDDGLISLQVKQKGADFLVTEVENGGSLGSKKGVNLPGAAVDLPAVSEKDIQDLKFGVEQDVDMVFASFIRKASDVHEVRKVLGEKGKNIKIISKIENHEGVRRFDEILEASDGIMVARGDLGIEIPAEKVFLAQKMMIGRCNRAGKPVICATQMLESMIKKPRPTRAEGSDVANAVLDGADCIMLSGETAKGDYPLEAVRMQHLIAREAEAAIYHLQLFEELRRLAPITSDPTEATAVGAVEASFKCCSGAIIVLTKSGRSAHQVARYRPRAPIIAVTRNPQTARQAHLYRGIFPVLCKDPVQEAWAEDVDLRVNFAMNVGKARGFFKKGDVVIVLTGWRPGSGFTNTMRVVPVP
Summary of the method: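 Activation assay with 0.1 mM ADP and 0.5 mM PEP in 50 mM imidazole pH 7.2, 50 mM KCl, 7 mM MgCl2, 0.01% tween 20, 0.05% BSA; 1 h at r.t. ATP produced was read by luciferase luminescence. AC50 values were normalized to DMSO (uninhibited enzyme) and no-enzyme controls.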

hPK-M2 [2] = biological target: T1, hPK-M2; experiment: Fluorescent pyruvate kinase-lactate dehydrogenase (LDH) coupled secondary assay; type: biochemical; conditions: for Emax: read-out: maximum response, LDH assay; for LDH hPK, M2 Max. Res.: % activation at 57 μM of compound
Experimental: Fluorescent Pyruvate Kinase-Lactate Dehydrogenase Coupled Secondary Assay.
Plates were immediately placed in ViewLux (Perkin Elmer) and NADH fluorescence was determined at 30 second exposure intervals for between 3 and 6 minutes. Data were normalized to the uninhibited and EC100 activation using known activators such as fructose-1,6-bis-phosphate. […] Data was collected on the Perkin Elmer Viewlux.

[3] = luminescent pyruvate kinase-luciferase coupled assay (KinaseGlo), tables, read-out: hPK, M2 AC50
[4] = luciferase-coupled assay, relative to activation by FBP
[5] = tables, read-out: LDH hPK, M2 AC50

Compound	activation at 57 µM (hPK-M2 [1]) [%]	AC50 (hPK-M2 [1]; [3]) [nM]	AC50 (hPK-M2 [2]; read-out: AC50, LDH assay) [nM]	Emax (hPK-M2 [2]) [%]	hPK, M2 Max. Res. (hPK-M2 [1]) [%]	LDH hPK, M2 Max. Res. (hPK-M2 [2]) [%]	AC50 (hPK-M2 [2]; [5]) [nM]	other results
Cn1c2cc([S+](C)[O-])sc2c2cnn(Cc3ccccc3F)c(=O)c21 (centres unmarked) [Compound 73, 2-Methylsulfinyl-4-methyl-6-[(2-fluorophenyl)methyl]-4H-thieno[3,2-b]pyrrole[3,2-d]pyridazinone]	97.9 ± 3.1	25 ± 10	190 ± 10	211	–	–	–	–
Cn1c2cc(C=O)sc2c2cnn(Cc3ccccc3F)c(=O)c21 [Compound 84, 2-Formyl-4-methyl-6-[(2-fluorophenyl)methyl]-4H-thieno[3,2-b]pyrrole[3,2-d]pyridazinone]	99.8 ± 6.5	16 ± 10	100 ± 10	239	–	–	–	–
Cn1c2cc(CO)sc2c2cnn(Cc3ccccc3F)c(=O)c21 [Compound 85, 2-Hydroxylmethyl-4-methyl-6-[(2-fluorophenyl)methyl]-4H-thieno[3,2-b]pyrrole[3,2-d]pyridazinone]	103 ± 7.2	48 ± 10	220 ± 30	155	–	–	–	–
CC(=O)c1cc2c(s1)c1cnn(Cc3ccccc3F)c(=O)c1n2C [Compound 87, 2-Acetyl-4-methyl-6-[(2-fluorophenyl)methyl]-4H-thieno[3,2-b]pyrrole[3,2-d]pyridazinone]	108 ± 4.9	11	150 ± 30	200	–	–	–	–
Cc1cc2c(s1)c1c(C)nn(Cc3ccccc3F)c(=O)c1n2C [Compound 92, 2,4,8-Methyl-6-[(2-fluorophenyl)methyl]-4H-thieno[3,2-b]pyrrole[3,241]-pyridazinone]	–	–	–	< 80	–	–	–	Emax (hPK-M2 [1]; [4]): < 80%
Cn1c2ccsc2c2ncn(Cc3ccccc3F)c(=O)c21 [Compound 100, 4-Methyl-6-[(2-fluorophenyl)methyl]-4H-thieno[3,2-b]pyrrole[3,2-d]pyrimidinone]	–	–	–	< 80	–	–	–	Emax (hPK-M2 [1]; [4]): < 80%
Cc1cc2c(s1)c1cnn(Cc3ccc(Cl)cc3)c(=O)c1n2C [Compound 108, 2,4-Methyl-6-[(4-chlorophenyl)methyl]-4H-thieno[3,2-b]pyrrole[3,2-d]pyridazinone]	90.6 ± 3.3	326 ± 90	1650	191	–	–	–	–
Cc1cc2c(s1)c1cnn(Cc3ccc(C(F)(F)F)cc3)c(=O)c1n2C [Compound 110, 2,4-Methyl-6-[(4-trifluoromethylphenyl)methyl]-4H-thieno[3,2-b]pyrrole[3,2-d]pyridazinone]	56.1 ± 5.4	553 ± 130	2200	77	–	–	–	–
COc1ccc(Cn2ncc3c4sc(C)cc4n(C)c3c2=O)cc1 [Compound 111, 2,4-Methyl-6-[(4-methoxyphenyl)methyl]-4H-thieno[3,2-b]pyrrole[3,2-d]pyridazinone]	96.2 ± 2.5	37 ± 10	230 ± 40	258	–	–	–	–
Cc1cc2c(s1)c1cnn(Cc3ccc(F)cc3F)c(=O)c1n2C [Compound 112, 2,4-Methyl-6-[(2,4-difluorophenyl)methyl]-4H-thieno[3,2-b]pyrrole[3,2-d]pyridazinone]	–	44 ± 10	170 ± 30	217	–	–	–	–
Cc1cc2c(s1)c1cnn(Cc3c(F)cccc3F)c(=O)c1n2C [Compound 113, 2,4-Methyl-6-[(2,6-difluorophenyl)methyl]-4H-thieno[3,2-b]pyrrole[3,2-d]pyridazinone]	93.8 ± 5	49 ± 20	140 ± 10	240	–	–	–	–
Cc1cc2c(s1)c1cnn(Cc3ccc(C(F)(F)F)cc3F)c(=O)c1n2C [Compound 120, 2,4-Methyl-6-[(2-fluoro-4-trifluoromethylphenyl)methyl]-4H-thieno[3,2-b]pyrrole[3,2-d]pyridazinone]	59.3 ± 18	–	–	< 80	–	–	–	Emax (hPK-M2 [1]; [4]): < 80%
COc1ccc(Cn2ncc3c4sc(C)cc4n(C)c3c2=O)cc1F [Compound 121, 2,4-Methyl-6-[(3-fluoro-4-methoxyphenyl)methyl]-4H-thieno[3,2-b]pyrrole[3,2-d]pyridazinone]	–	–	1000	–	68.2 ± 7.9	–	–	AC50 (hPK-M2 [1]; luciferase-coupled assay, read-out: AC50): 225 ± 97 nM; maximum response (hPK-M2 [1]; [4]): 68.2%; maximum response, LDH assay (hPK-M2 [2]): 135±20%
Nc1ccc(S(=O)(=O)N2CCN(S(=O)(=O)c3c(F)cccc3F)CC2)cc1 [Compound 123]	82.6	651	–	–	–	170.98	410	–
Nc1cccc(S(=O)(=O)N2CCCN(S(=O)(=O)c3ccc4c(c3)OCCO4)CC2)c1 [Compound 124]	88.9	32.6	–	–	–	169.71	–	–
Nc1ccc(S(=O)(=O)N2CCCN(S(=O)(=O)c3ccc4c(c3)OCCO4)CC2)cc1 [Compound 125]	86.6	103	–	–	–	131.59	163	–
COc1cc(F)c(S(=O)(=O)N2CCCN(S(=O)(=O)c3cccc(NC(C)=O)c3)CC2)c(F)c1 [Compound 126]	83.8	2910	–	–	–	114.61	2910	–
COc1cc(F)c(S(=O)(=O)N2CCCN(S(=O)(=O)c3ccc4c(c3)OCCO4)CC2)c(F)c1 [Compound 128]	96.7	36.6	–	–	–	159.85	58	–
CC(=O)Nc1cccc(S(=O)(=O)N2CCCN(S(=O)(=O)c3ccc4c(c3)OCCO4)CC2)c1 [Compound 131]	–	819	–	–	91.11	123.67	819	–
CC(=O)Nc1ccc(S(=O)(=O)N2CCCN(S(=O)(=O)c3ccc4c(c3)OCCO4)CC2)cc1 [Compound 132]	81.1	4110	–	–	–	123.97	2590	–
COc1cc(F)c(S(=O)(=O)N2CCN(S(=O)(=O)c3cccc(NC(C)=O)c3)CC2)c(F)c1 [Compound 133]	–	1630	–	–	60.00	94.88	1030	–
COc1cc(F)c(S(=O)(=O)N2CCN(S(=O)(=O)c3cccc(N)c3)CC2)c(F)c1 [Compound 134]	–	23.1	–	–	87.00	141.67	73	–
Nc1cccc(S(=O)(=O)N2CCN(S(=O)(=O)c3ccc4c(c3)OCCO4)CC2)c1 [Compound 135]	–	41.1	–	–	82.08	98.13	146	–
Nc1cccc(S(=O)(=O)N2CCN(S(=O)(=O)c3c(F)cccc3F)CC2)c1 [Compound 137]	–	91.9	–	–	81.51	154.42	206	–
COc1cc(F)c(S(=O)(=O)N2CCN(S(=O)(=O)c3ccc(N)cc3)CC2)c(F)c1 [Compound 139]	–	130	–	–	92.46	166.00	183	–
O=S(=O)(c1cccc(O)c1)N1CCN(S(=O)(=O)c2c(F)cccc2F)CC1 [Compound 140]	–	183	–	–	89.61	148.41	183	–
COc1cc(F)c(S(=O)(=O)N2CCCN(S(=O)(=O)c3cccc(N)c3)CC2)c(F)c1 [Compound 141]	–	206	–	–	93.20	157.96	146	–
COc1cc(F)c(S(=O)(=O)N2CCCN(S(=O)(=O)c3ccc(N)cc3)CC2)c(F)c1 [Compound 143]	–	1300	–	–	89.36	150.25	1300	–
COc1cc(F)c(S(=O)(=O)N2CCN(S(=O)(=O)c3cccs3)CC2)c(F)c1 [Compound 144]	–	36.6	–	–	95.08	125.28	51.7	–
